Measured values from PMC9779727, “Identification of Novel Artemisinin Hybrids Induce Apoptosis and Ferroptosis in MCF-7 Cells” (International Journal of Molecular Sciences, 2022).

Columns and labels:
lung cancer A549 cells = test: MTT antiproliferation assay, A549; type: cell-based, human; settings: 48 h, means ± SD, n = 3
Excerpt: (§1) The target hybrids A1–A15 were screened for their antiproliferation activities against five human cancer cell lines (lung cancer A549 cells, breast cancer MCF-7 and MDA-MB-231 cells, colon cancer HCT116 cells and ovarian cancer SK-OV-3 cells) in vitro by the standard MTT method, and 5-fluorouracil (5-FU) and ART were coassayed as controls. […] Therefore, the most promising hybrid, A8, was chosen for further exploration of the preliminary mechanism of MCF-7 cell antiproliferation.
(§2) Cytotoxicity of test compounds against five different tumor cell lines were evaluated using an MTT assay in vitro. Cells were seeded into 96-well plates at a density of 5 × 10^4 cells per well and stabilized at 37 °C with 5% CO2 for 24 h. Compounds A1–A15, ART and 5-FU were added to each well at various concentrations and then the cells were incubated for 48 h. The MTT solution (100 μL 0.5 mg/mL^−1) was added to each well, and the cells were incubated for another 4 h. Then, 150 μL DMSO was added to each well and the absorbance of samples was measured at 492 nm. The IC50 values were calculated according to Logit method after getting the inhibitory rate.

[1] = tested on: breast cancer MCF-7 cells; test: MTT antiproliferation assay, MCF-7; type: cell-based, human; settings: 48 h, means ± SD, n = 3
Excerpt: as §1, §2

[2] = tested on: colon cancer HCT116 cells; test: MTT antiproliferation assay, HCT116; type: cell-based, human; settings: 48 h, means ± SD, n = 3
Excerpt: as §1, §2

[3] = tested on: ovarian cancer SK-OV-3 cells; test: MTT antiproliferation assay, SK-OV-3; type: cell-based, human; settings: 48 h, means ± SD, n = 3
Excerpt: as §1, §2

MCF-7 cells [4] = test: JC-1 mitochondrial membrane potential assay; type: cell-based, human; settings: 48 h, control 7.85%
Method: JC-1 staining was also performed to explore the change in mitochondrial membrane potential (MMP), which could induce apoptosis.
MCF-7 cells were plated at 1 × 10^6 cells per well in 24-well plates and incubated with compound A8 at various concentrations (0, 2.5, 5 and 10 μM) for 48 h. Subsequently, the cells were incubated with JC-1 dye and finally analyzed by flow cytometry (Beckman Coulter cytoFLEX, USA).

Bcl-2 = test: Western blotting, Bcl-2 expression; type: cell-based, human; settings: MCF-7, 0, 2.5, 5 and 10 μM, 48 h, GAPDH internal control
Method: Based on the JC-1 staining results, we further analyzed the expression of proteins related to apoptosis using a Western blotting assay with GAPDH as an internal control. […] Then, an excess of cytochrome C can enhance caspase-3 activation to stimulate apoptosis.
MCF-7 cells were seeded at a density of 4 × 10^5 cells per well and treated with various concentrations of compound A8 (0, 2.5, 5 and 10 μM) for 48 h. After this, cells were collected and washed twice with ice-cold DPBS. The pellets were resuspended in a total protein extraction buffer (20 mM HEPES, 350 mM NaCl, 20% glycerol, 1% NP-40, 1 mM MgCl2, 0.5 mM EDTA, 0.1 mM EGTA, 0.1 mM DTT, 0.1 mM PMSF) containing a protease inhibitor cocktail and incubated on ice for 30 min with intermittent mixing. The protein concentration was measured using the Bradford reagent (Bio-Rad Laboratories Inc., Hercules, CA, USA). An equal amount (20 μg) of protein was loaded on 10% polyacrylamide gels and transferred to a nitrocellulose membrane. After blocking with 5% skimmed milk, the membrane was incubated at 4 °C overnight with specific primary antibodies. The membrane was washed and incubated at room temperature for 1 h with secondary antibodies conjugated with horseradish peroxidase (HRP). Finally, the immunoblot was developed for visualization using a chemiluminescence kit. […]

MCF-7 cells [5] = test: Intracellular ROS generation (DCFH-DA, flow cytometry); type: cell-based, human; settings: MCF-7, 0, 2.5, 5 and 10 μM, 48 h
Method: First, we detected ROS levels using DFCH-DA.
ROS production was detected by using the peroxide-sensitive fluorescent probe DCFH-DA. After treatment with different concentrations of A8 for 48 h, the cells were incubated with 10 μg/mL DCFH-DA at 37 °C for 20 min. Then, cells were harvested. Samples were analyzed by flow cytometry (FACS Calibur, Becton-Dickinson, East Rutherford, NJ, USA).

CYP1A2 = target: T1, CYP1A2 (Homo sapiens, UniProt P05177); test: CYPs inhibition assay, CYP1A2; type: in vitro ADME
T1 construct: from tissue; host or cells: human liver microsomes
T1 sequence (P05177 1-516): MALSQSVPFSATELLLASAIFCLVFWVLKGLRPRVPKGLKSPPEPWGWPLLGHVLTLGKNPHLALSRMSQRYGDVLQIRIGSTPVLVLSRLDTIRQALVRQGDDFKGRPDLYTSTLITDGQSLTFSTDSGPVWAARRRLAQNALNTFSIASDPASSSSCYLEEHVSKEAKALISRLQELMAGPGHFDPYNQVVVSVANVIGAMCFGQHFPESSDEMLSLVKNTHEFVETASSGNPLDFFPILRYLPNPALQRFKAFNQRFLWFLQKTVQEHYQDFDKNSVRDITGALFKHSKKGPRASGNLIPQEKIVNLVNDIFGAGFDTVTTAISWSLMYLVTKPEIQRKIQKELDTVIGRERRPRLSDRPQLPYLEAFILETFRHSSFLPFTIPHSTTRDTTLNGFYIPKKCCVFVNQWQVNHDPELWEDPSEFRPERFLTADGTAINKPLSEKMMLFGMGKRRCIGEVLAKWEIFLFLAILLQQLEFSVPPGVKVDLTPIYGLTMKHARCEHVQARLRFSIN
Method: (§3) Finally, we evaluated the interaction between the hybrid A8 and five major metabolic enzymes (CYP1A2, CYP2C9, CYP2C19, CYP2D6 and CYP3A4) in the human body. […] It is also one of the directions for our further transformation and optimization.
(§4) Cytochrome P450 inhibition was evaluated in human liver microsomes (0.253 mg/mL) using five […] (CYP1A2, α-Naphthoflavone; CYP2C9, Sulfaphenazole; CYP2C19, Benzylnirvanol; CYP2D6, Quinidine; and CYP3A4, Ketoconazole.) in the presence of compound A8 (10 μM). After preincubation for 10 min at 37 °C, an NADPH-regenerating system was added. After the mixed system was incubated for 15 min at 37 °C, the reaction was stopped by adding 400 μL of cold stop solution (200 ng/mL tolbutamide and 200 ng/mL labetalol in acetonitrile). Then, the mixture was centrifuged, and the supernatant was analyzed by LC-MS/MS.

CYP2C9 = target: T2, CYP2C9 (Homo sapiens, UniProt P11712); test: CYPs inhibition assay, CYP2C9; type: in vitro ADME; settings: human liver microsomes
T2 construct: from tissue; host or cells: human liver microsomes
T2 sequence (P11712 whole entry): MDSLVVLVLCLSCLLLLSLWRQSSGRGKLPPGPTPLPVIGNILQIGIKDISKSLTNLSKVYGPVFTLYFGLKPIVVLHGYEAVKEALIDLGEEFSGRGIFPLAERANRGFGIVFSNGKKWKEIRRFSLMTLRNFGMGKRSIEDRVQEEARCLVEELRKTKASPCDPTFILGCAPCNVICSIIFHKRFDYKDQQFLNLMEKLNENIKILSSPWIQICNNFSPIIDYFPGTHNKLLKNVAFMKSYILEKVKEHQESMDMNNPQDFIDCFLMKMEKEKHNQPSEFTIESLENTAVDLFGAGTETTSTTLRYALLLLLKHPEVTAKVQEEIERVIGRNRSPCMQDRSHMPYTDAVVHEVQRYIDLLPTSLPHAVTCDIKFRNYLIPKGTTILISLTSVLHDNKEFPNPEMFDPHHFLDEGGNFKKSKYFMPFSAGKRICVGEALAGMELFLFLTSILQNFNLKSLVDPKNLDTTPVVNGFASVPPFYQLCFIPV
Method: as §3, §4

CYP2C19 = target: T3, CYP2C19 (Homo sapiens, UniProt P33261); test: CYPs inhibition assay, CYP2C19; type: in vitro ADME; settings: human liver microsomes
T3 construct: from tissue; host or cells: human liver microsomes
T3 sequence (P33261 whole entry): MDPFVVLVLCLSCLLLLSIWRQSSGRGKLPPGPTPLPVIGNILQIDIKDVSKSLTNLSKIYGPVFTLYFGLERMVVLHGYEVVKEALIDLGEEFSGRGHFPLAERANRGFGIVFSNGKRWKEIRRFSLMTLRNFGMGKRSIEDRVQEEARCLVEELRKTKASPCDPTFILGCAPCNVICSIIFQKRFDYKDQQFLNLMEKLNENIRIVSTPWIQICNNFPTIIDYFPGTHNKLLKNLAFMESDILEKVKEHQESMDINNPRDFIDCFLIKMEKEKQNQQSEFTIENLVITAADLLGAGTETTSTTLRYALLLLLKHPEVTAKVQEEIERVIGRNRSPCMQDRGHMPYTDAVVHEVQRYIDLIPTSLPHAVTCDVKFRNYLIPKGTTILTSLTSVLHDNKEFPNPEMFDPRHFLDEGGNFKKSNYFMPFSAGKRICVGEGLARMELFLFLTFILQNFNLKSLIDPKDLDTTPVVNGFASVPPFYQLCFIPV
Method: as §3, §4

CYP2D6 = target: T4, CYP2D6 (Homo sapiens, UniProt P10635); test: CYPs inhibition assay, CYP2D6; type: in vitro ADME; settings: human liver microsomes
T4 construct: from tissue; host or cells: human liver microsomes
T4 sequence (P10635 whole entry): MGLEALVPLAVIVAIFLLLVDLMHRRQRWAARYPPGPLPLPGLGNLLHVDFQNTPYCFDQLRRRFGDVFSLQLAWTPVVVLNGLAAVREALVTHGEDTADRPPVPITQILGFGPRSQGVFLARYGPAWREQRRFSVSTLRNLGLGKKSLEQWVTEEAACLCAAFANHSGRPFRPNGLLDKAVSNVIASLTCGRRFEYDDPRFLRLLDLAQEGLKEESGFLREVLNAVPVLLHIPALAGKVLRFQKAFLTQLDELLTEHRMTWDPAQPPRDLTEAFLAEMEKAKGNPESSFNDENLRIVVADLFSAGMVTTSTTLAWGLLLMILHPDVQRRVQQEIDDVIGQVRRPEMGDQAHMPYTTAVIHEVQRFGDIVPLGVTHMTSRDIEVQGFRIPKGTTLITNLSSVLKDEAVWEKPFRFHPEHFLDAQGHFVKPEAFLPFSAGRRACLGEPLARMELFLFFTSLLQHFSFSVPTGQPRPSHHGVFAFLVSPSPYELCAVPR
Method: as §3, §4

CC1CCC2C(C)C(OC(=O)CCC(=O)NCc3nnc(Nc4ccc(F)cc4F)o3)OC3OC4(C)CCC1C32OO4 (centres unmarked) [A8]
IC50 (lung cancer A549 cells): 7.7 ± 0.36 µM | IC50 [1]: 4.07 ± 0.05 µM | IC50 [2]: 9.71 ± 0.37 µM | IC50 [3]: 7.15 ± 0.95 µM | proportion of MCF-7 cells with depolarized mitochondria (Q1-LR) (MCF-7 cells [4]; 2.5 μM): 19.45% | proportion of MCF-7 cells with depolarized mitochondria (Q1-LR) (MCF-7 cells [4]; 5 μM): 36.90% | proportion of MCF-7 cells with depolarized mitochondria (Q1-LR) (MCF-7 cells [4]; 10 μM): 48.70% | expression of Bcl-2 (in words) (Bcl-2): significantly downregulated | ROS fluorescence intensity (in words) (MCF-7 cells [5]): increased significantly with increasing drug concentration | inhibitory effect on CYP1A2 (in words) (CYP1A2; 10 μM): moderate inhibitory effect | Inhibition at 10 μM (%) CYP1A2 (CYP1A2; human liver microsomes): 57.1% | Inhibition at 10 μM (%) CYP2C9 (CYP2C9): 6.4% | Inhibition at 10 μM (%) CYP2C19 (CYP2C19): 12.3% | Inhibition at 10 μM (%) CYP2D6 (CYP2D6): 0.1%
